{"source": "patent US20230248833A1", "about": "“COMPOUND HAVING BTK KINASE DEGRADING ACTIVITY, AND PREPARATION METHOD AND PHARMACEUTICAL USE THEREFOR” (SICHUAN HAISCO PHARMACEUTICAL CO., LTD., priority 2020, published 2023)", "key": {"[1]": {"test_system": "SU-DHL-6 cells", "test": "Inhibition of cell proliferation, SU-DHL-6 cells (Cell Viability Assay, 72 h)", "type": "cell-based, human", "description": "(§1) SU-DHL-4, Mino, and SU-DHL-6 cells, in the culture medium of RPMI1640+10% FBS, were cultured in an incubator at 37° C. under 5% CO2. Cells were plated in a 96-well plate. Specifically, SU-DHL-4 cells were at 20000/well, Mino and SU-DHL-6 cells were at 5000/well, with 90 μL/well. 10 μL of the compounds at different concentrations were added to each well. There were 3 replicate wells for each concentration, and the last column, added with DMSO, was used as a vehicle control group. The cultures were continued for 72 hours at 37° C. under 5% CO2. After 72 hours, 100 μL of detection reagent (Cell Viability Assay, Promega, G7573) was added to each well, and the cultures were uniformly mixed for 2 minutes, and incubated at room temperature for 10 minutes. The […] signal value was measured with a microplate reader (PHERAstar FSX). The IC50 value of the compound on cell proliferation inhibition was calculated using origin9.2 software, and the inhibition rate at the highest concentration of the compound (Max inhi.%) was calculated according to formula (1).\n(§2) Max inhi.%=(1−T72administration/T72vehicle)×100 Formula (1)."}, "[2]": {"test": "Pharmacokinetic experiment in rats", "type": "in vivo", "conditions": "male, SD, rat, po, plasma, i.g. (20 mg/kg); for AUC(0-t): single dose", "description": "Experimental objective: In this experiment, a single dose of each test compound was administered to SD rats intravenously and intragastrically, the concentrations of the test compound in plasma of rats were measured, and the pharmacokinetic characteristics and bioavailability of the test compound in rats were evaluated.\nExperimental animals: Male SD rats, about 200 g, 6-8 weeks old, 6 rats/compound. Rats were purchased from Hunan SJA Laboratory Animal Co., Ltd, with the laboratory animal production license number of SCXK (Xiang) 2019-004.\nExperimental method: On the day of the experiment, 6 SD rats were randomly grouped according to their body weight. The animals were fasted with water available for 12 to 14 hours one day before the administration of a test compound, and were fed 4 hours after the administration.\nBefore and after the administration, […] of blood was taken from the orbit of the rats under isoflurane anesthesia, and placed in an EDTAK2 centrifuge tube. Centrifugation was carried out at 5000 rpm at 4° C. for 10 min, and the plasma was collected.\nTime points for sample collection in G1&G2 groups comprise\nBefore analysis and detection, all samples were stored at −80° C. The samples were detected by HPLC-MS/MS."}, "[3]": {"test_system": "Mino cells", "test": "Inhibition of cell proliferation, Mino cells (Cell Viability Assay, 72 h)", "type": "cell-based, human", "description": "as §1, §2"}}, "note": "Where two headings read alike, the source gives them in different places."}
{"compound": "Nc1ncnc2c1c(-c1ccc(Oc3ccccc3)cc1)nn2[C@H]1CCN(C2CN(CC3CN(c4ccc5c(c4)C(=O)N(C4CCC(=O)NC4=O)C5=O)C3)C2)C[C@H]1F", "note": "(stereo partly drawn) [Compound 104, 5-(3-((3-((3R,4S)-4-(4-amino-3-(4-phenoxyphenyl)-1H-pyrazolo[3,4-d]pyrimidin-1-yl)-3-fluoropiperidin-1-yl)azetidin-1-yl)methyl)azetidin-1-yl)-2-(2,6-dioxopiperidin-3-yl)isoindoline-1,3-dione]", "values": [{"measurement": "IC50", "setting": "[1]; Homo sapiens, SU-DHL-6, 72 h", "result": 23, "unit": "nM"}, {"measurement": "AUC(0-t)", "setting": "[2]", "result": "1320 ± 653", "unit": "ng·h/mL"}, {"measurement": "IC50", "setting": "[3]; Homo sapiens, MINO, 72 h", "result": 16, "unit": "nM"}]}
{"compound": "Nc1ncnc2c1c(-c1ccc(Oc3ccccc3)cc1)nn2C1CCN(C2CN(CC3CN(c4cc5c(cc4F)C(=O)N(C4CCC(=O)NC4=O)C5=O)C3)C2)CC1", "note": "(centres unmarked) [Compound 106, 5-(3-((3-(4-(4-amino-3-(4-phenoxyphenyl)-1H-pyrazolo[3,4-d]pyrimidin-1-yl)piperidin-1-yl)azetidin-1-yl)methyl)azetidin-1-yl)-2-(2,6-dioxopiperidin-3-yl)-6-fluoroisoindoline-1,3-dione]", "values": [{"measurement": "IC50", "setting": "[1]; Homo sapiens, SU-DHL-6, 72 h", "result": 95, "unit": "nM"}, {"measurement": "bioavailability", "setting": "[2]; bioavailability", "result": "14.4 ± 3.3", "unit": "%"}, {"measurement": "AUC(0-t)", "setting": "[2]", "result": "3210 ± 728", "unit": "ng·h/mL"}, {"measurement": "IC50", "setting": "[3]; Homo sapiens, MINO, 72 h", "result": 119, "unit": "nM"}]}
{"compound": "Nc1ncnc2c1c(-c1ccc(Oc3ccccc3)cc1)nn2[C@@H]1CCN(C2CN(CC3CN(c4ccc5c(c4)C(=O)N(C4CCC(=O)NC4=O)C5=O)C3)C2)C[C@@H]1F", "note": "(stereo partly drawn) [Compound 110, 5-(3-((3-((3S,4R)-4-(4-amino-3-(4-phenoxyphenyl)-1H-pyrazolo[3,4-d]pyrimidin-1-yl)-3-fluoropiperidin-1-yl)azetidin-1-yl)methyl)azetidin-1-yl)-2-(2,6-dioxopiperidin-3-yl)isoindoline-1,3-dione]", "values": [{"measurement": "IC50", "setting": "[1]; Homo sapiens, SU-DHL-6, 72 h", "result": 31, "unit": "nM"}, {"measurement": "AUC(0-t)", "setting": "[2]", "result": "614 ± 125", "unit": "ng·h/mL"}, {"measurement": "IC50", "setting": "[3]; Homo sapiens, MINO, 72 h", "result": 35, "unit": "nM"}]}
{"compound": "Nc1ncnc2c1c(-c1ccc(Oc3ccccc3)cc1)nn2[C@@H]1CCN(C2CN(CC3CN(c4ccc5c(c4)C(=O)N(C4CCC(=O)NC4=O)C5=O)C3)C2)C[C@H]1F", "note": "(stereo partly drawn) [Compound 111, 5-(3-((3-((3R,4R)-4-(4-amino-3-(4-phenoxyphenyl)-1H-pyrazolo[3,4-d]pyrimidin-1-yl)-3-fluoropiperidin-1-yl)azetidin-1-yl)methyl)azetidin-1-yl)-2-(2,6-dioxopiperidin-3-yl)isoindoline-1,3-dione]", "values": [{"measurement": "IC50", "setting": "[1]; Homo sapiens, SU-DHL-6, 72 h", "result": 23, "unit": "nM"}, {"measurement": "AUC(0-t)", "setting": "[2]", "result": "753 ± 261", "unit": "ng·h/mL"}, {"measurement": "IC50", "setting": "[3]; Homo sapiens, MINO, 72 h", "result": 50, "unit": "nM"}]}
{"compound": "Nc1ncnc2c1c(-c1ccc(Oc3ccccc3)cc1)nn2[C@H]1CCN(C2CN(CC3CN(c4ccc5c(c4)C(=O)N(C4CCC(=O)NC4=O)C5=O)C3)C2)C[C@@H]1F", "note": "(stereo partly drawn) [Compound 112, 5-(3-((3-((3S,4S)-4-(4-amino-3-(4-phenoxyphenyl)-1H-pyrazolo[3,4-d]pyrimidin-1-yl)-3-fluoropiperidin-1-yl)azetidin-1-yl)methyl)azetidin-1-yl)-2-(2,6-dioxopiperidin-3-yl)isoindoline-1,3-dione]", "values": [{"measurement": "IC50", "setting": "[1]; Homo sapiens, SU-DHL-6, 72 h", "result": 36, "unit": "nM"}, {"measurement": "AUC(0-t)", "setting": "[2]", "result": "1780 ± 663", "unit": "ng·h/mL"}, {"measurement": "IC50", "setting": "[3]; Homo sapiens, MINO, 72 h", "result": 39, "unit": "nM"}]}
{"compound": "Nc1ncnc2c1c(-c1ccc(Oc3ccccc3)cc1)nn2[C@H]1CCN(C2CN(CC3CN(c4cc5c(cc4F)C(=O)N(C4CCC(=O)NC4=O)C5=O)C3)C2)C[C@H]1F", "note": "(stereo partly drawn) [Compound 114, 5-(3-((3-((3R,4S)-4-(4-amino-3-(4-phenoxyphenyl)-1H-pyrazolo[3,4-d]pyrimidin-1-yl)-3-fluoropiperidin-1-yl)azetidin-1-yl)methyl)azetidin-1-yl)-2-(2,6-dioxopiperidin-3-yl)-6-fluoroisoindoline-1,3-dione]", "values": [{"measurement": "IC50", "setting": "[1]; Homo sapiens, SU-DHL-6, 72 h", "result": 24, "unit": "nM"}, {"measurement": "AUC(0-t)", "setting": "[2]", "result": "2670 ± 738", "unit": "ng·h/mL"}, {"measurement": "IC50", "setting": "[3]; Homo sapiens, MINO, 72 h", "result": 66, "unit": "nM"}]}
{"compound": "Nc1ncnc2c1c(-c1ccc(Oc3ccccc3)cc1)nn2C1CCN(C2CN(CC3(F)CN(c4ccc5c(c4)C(=O)N(C4CCC(=O)NC4=O)C5=O)C3)C2)CC1", "note": "(centres unmarked) [Compound 116, 5-(3-((3-(4-(4-amino-3-(4-phenoxyphenyl)-1H-pyrazolo[3,4-d]pyrimidin-1-yl)piperidin-1-yl)azetidin-1-yl)methyl)-3-fluoroazetidin-1-yl)-2-(2,6-dioxopiperidin-3-yl)isoindoline-1,3-dione]", "values": [{"measurement": "IC50", "setting": "[1]; Homo sapiens, SU-DHL-6, 72 h", "result": 52, "unit": "nM"}, {"measurement": "AUC(0-t)", "setting": "[2]", "result": "4440 ± 544", "unit": "ng·h/mL"}, {"measurement": "IC50", "setting": "[3]; Homo sapiens, MINO, 72 h", "result": 29, "unit": "nM"}]}
{"compound": "Nc1ncnc2c1c(-c1ccc(Oc3ccccc3)cc1)nn2C1CCN(C2CN(CC3(F)CCN(c4cc5c(cc4F)C(=O)N(C4CCC(=O)NC4=O)C5=O)CC3)C2)CC1", "note": "(centres unmarked) [Compound 117, 5-(4-((3-(4-(4-amino-3-(4-phenoxyphenyl)-1H-pyrazolo[3,4-d]pyrimidin-1-yl)piperidin-1-yl)azetidin-1-yl)methyl)-4-fluoropiperidin-1-yl)-2-(2,6-dioxopiperidin-3-yl)-6-fluoroisoindoline-1,3-dione]", "values": [{"measurement": "IC50", "setting": "[1]; Homo sapiens, SU-DHL-6, 72 h", "result": 98, "unit": "nM"}, {"measurement": "AUC(0-t)", "setting": "[2]", "result": "2280 ± 64", "unit": "ng·h/mL"}, {"measurement": "IC50", "setting": "[3]; Homo sapiens, MINO, 72 h", "result": 119, "unit": "nM"}]}
{"compound": "Nc1ncnc2c1c(-c1ccc(Oc3ccccc3)cc1)nn2C1CCN(C2C[C@@H]3CN(CC4CN(c5ccc6c(c5)C(=O)N(C5CCC(=O)NC5=O)C6=O)C4)C[C@@H]3C2)CC1", "note": "(stereo partly drawn) [Trifluoroacetate of compound 100, 5-(3-(((3aR,6aS)-5-(4-(4-amino-3-(4-phenoxyphenyl)-1H-pyrazolo[3,4-d]pyrimidin-1-yl)piperidin-1-yl)hexahydrocyclopenta[c]pyrrol-2(1H)-yl)methyl)azetidin-1-yl)-2-(2,6-dioxopiperidin-3-yl)isoindoline-1,3-dione]", "values": [{"measurement": "IC50", "setting": "[1]; Homo sapiens, SU-DHL-6, 72 h", "result": 99, "unit": "nM"}, {"measurement": "IC50", "setting": "[3]; Homo sapiens, MINO, 72 h", "result": 123, "unit": "nM"}]}
{"compound": "Nc1ncnc2c1c(-c1ccc(Oc3ccccc3)cc1)nn2C1CCN(C2CC3(CCN(CC4CN(c5ccc6c(c5)C(=O)N(C5CCC(=O)NC5=O)C6=O)C4)CC3)C2)CC1", "note": "(centres unmarked) [Trifluoroacetate of compound 101, 5-(3-((2-(4-(4-amino-3-(4-phenoxyphenyl)-1H-pyrazolo[3,4-d]pyrimidin-1-yl)piperidin-1-yl)-7-azaspiro[3.5]nonan-7-yl)methyl)azetidin-1-yl)-2-(2,6-dioxopiperidin-3-yl)isoindoline-1,3-dione]", "values": [{"measurement": "IC50", "setting": "[1]; Homo sapiens, SU-DHL-6, 72 h", "result": 77, "unit": "nM"}, {"measurement": "IC50", "setting": "[3]; Homo sapiens, MINO, 72 h", "result": 77, "unit": "nM"}]}
{"compound": "Nc1ncnc2c1c(-c1ccc(Oc3ccccc3)cc1)nn2C1CCN(C2CN(C3CN(CC4CN(c5ccc6c(c5)C(=O)N(C5CCC(=O)NC5=O)C6=O)C4)C3)C2)CC1", "note": "(centres unmarked) [Trifluoroacetate of compound 102, 5-(3-((3-(4-(4-amino-3-(4-phenoxyphenyl)-1H-pyrazolo[3,4-d]pyrimidin-1-yl)piperidin-1-yl)-[1,3′-biazetidin]-1′-yl)methyl)azetidin-1-yl)-2-(2,6-dioxopiperidin-3-yl)isoindoline-1,3-dione]", "values": [{"measurement": "IC50", "setting": "[1]; Homo sapiens, SU-DHL-6, 72 h", "result": 23, "unit": "nM"}, {"measurement": "IC50", "setting": "[3]; Homo sapiens, MINO, 72 h", "result": 42, "unit": "nM"}]}
{"compound": "Nc1ncnc2c1c(-c1ccc(Oc3ccccc3)cc1)nn2C1CCN(C2CN(CC3CN(c4ccc5c(c4)CN(C4CCC(=O)NC4=O)C5=O)C3)C2)CC1", "note": "(centres unmarked) [Trifluoroacetate of compound 107, 3-(5-(3-((3-(4-(4-amino-3-(4-phenoxyphenyl)-1H-pyrazolo[3,4-d]pyrimidin-1-yl)piperidin-1-yl)azetidin-1-yl)methyl)azetidin-1-yl)-1-oxoisoindolin-2-yl)piperidine-2,6-dione]", "values": [{"measurement": "IC50", "setting": "[1]", "result": 22, "unit": "nM"}, {"measurement": "IC50", "setting": "[3]", "result": 34, "unit": "nM"}]}
{"compound": "Nc1ncnc2c1c(-c1ccc(Oc3ccccc3)cc1)nn2C1CCN(C2CN(CC3CN(Cc4ccc5c(c4)C(=O)N(C4CCC(=O)NC4=O)C5=O)C3)C2)CC1", "note": "(centres unmarked) [Trifluoroacetate of compound 109, 5-((3-((3-(4-(4-amino-3-(4-phenoxyphenyl)-1H-pyrazolo[3,4-d]pyrimidin-1-yl)piperidin-1-yl)azetidin-1-yl)methyl)azetidin-1-yl)methyl)-2-(2,6-dioxopiperidin-3-yl)isoindoline-1,3-dione]", "values": [{"measurement": "IC50", "setting": "[1]", "result": 145, "unit": "nM"}, {"measurement": "IC50", "setting": "[3]", "result": 356, "unit": "nM"}]}
